Tested on: Era-His association to 30S ribosomes in S. aureus USA300
Experiment: In vivo ribosome association of Era-His to 30S in S. aureus cells
Assay type: cell-based, Staphylococcus aureus
Details: USA300 (p)ppGpp-null Δera iTET-era-His; 0.05 or 60 μg/ml mupirocin for 15 min
Source text: Upon induction of the stringent response, cellular levels of (p)ppGpp increase, while concentration of GTP drops ([38]). Having observed decreased association of RA-GTPases to ribosomal subunits in vitro, we wanted to examine the interaction under more physiologically relevant conditions. To investigate RA-GTPases interactions with the ribosome in the bacterial cell, we used an era deletion mutant in a community-acquired methicillin-resistant S. aureus (CA-MRSA) USA300 strain that we had previously constructed ([10]). […] To establish whether induction of the stringent response in bacterial cells leads to a decrease in the association of Era to the 30S subunit, the era mutant was complemented with an Atet-inducible 6×His-tagged version of era using the iTET vector. […] Normalized 30S pools were analyzed for associated Era-His using α-His Western immunoblotting (Fig. 4C). Crude lysates sampled prior to loading on the sucrose gradients were also analyzed to ensure equal loading and equal expression of Era-His between samples (see Fig. S5B). […]
FIG 4 Association of Era to the 30S subunit is reduced under stringent conditions. […] RNA content was analyzed at an absorbance of 260 nm. […] Ribosomal subunits were separated, and the amount of Era-His associated in each strain was detected using HRP-conjugated α-His antibodies. […]

SMILES: C/C(=C\C(=O)OCCCCCCCCC(=O)O)C[C@@H]1OC[C@H](C[C@@H]2O[C@H]2[C@@H](C)[C@H](C)O)[C@@H](O)[C@H]1O [mupirocin]
- ribosome association of Era-His after treatment, (p)ppGpp-null strain: decrease is not seen
